Experiment [1] has as its target T1, Inhibitor of nuclear factor kappa-B kinase subunit beta (Homo sapiens, UniProt O14920).
T1 sequence (O14920 whole entry): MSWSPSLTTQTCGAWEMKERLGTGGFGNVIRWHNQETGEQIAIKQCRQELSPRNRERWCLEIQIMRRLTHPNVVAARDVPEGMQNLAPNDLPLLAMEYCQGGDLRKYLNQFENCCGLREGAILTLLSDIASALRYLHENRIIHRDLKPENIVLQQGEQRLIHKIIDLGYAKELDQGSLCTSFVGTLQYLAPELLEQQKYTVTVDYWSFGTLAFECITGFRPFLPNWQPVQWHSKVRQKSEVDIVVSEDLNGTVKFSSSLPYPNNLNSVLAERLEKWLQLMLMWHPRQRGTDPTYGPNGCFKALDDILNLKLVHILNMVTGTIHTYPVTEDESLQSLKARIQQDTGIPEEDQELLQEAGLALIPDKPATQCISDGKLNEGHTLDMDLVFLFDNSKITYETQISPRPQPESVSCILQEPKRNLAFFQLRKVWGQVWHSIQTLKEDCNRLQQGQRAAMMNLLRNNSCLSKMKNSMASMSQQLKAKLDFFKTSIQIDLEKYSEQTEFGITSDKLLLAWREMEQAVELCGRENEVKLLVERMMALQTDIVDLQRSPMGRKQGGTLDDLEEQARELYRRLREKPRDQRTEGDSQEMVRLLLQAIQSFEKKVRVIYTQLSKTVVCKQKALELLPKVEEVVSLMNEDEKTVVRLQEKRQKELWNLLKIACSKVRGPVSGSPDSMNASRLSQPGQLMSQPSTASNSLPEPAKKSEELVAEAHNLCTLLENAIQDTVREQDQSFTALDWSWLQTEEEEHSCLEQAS
In words: Inhibition of human recombinant IKK2.

Experiment [2] deals with T2, Inhibitor of nuclear factor kappa-B kinase subunit alpha (Homo sapiens, UniProt O15111).
T2 sequence (O15111 whole entry): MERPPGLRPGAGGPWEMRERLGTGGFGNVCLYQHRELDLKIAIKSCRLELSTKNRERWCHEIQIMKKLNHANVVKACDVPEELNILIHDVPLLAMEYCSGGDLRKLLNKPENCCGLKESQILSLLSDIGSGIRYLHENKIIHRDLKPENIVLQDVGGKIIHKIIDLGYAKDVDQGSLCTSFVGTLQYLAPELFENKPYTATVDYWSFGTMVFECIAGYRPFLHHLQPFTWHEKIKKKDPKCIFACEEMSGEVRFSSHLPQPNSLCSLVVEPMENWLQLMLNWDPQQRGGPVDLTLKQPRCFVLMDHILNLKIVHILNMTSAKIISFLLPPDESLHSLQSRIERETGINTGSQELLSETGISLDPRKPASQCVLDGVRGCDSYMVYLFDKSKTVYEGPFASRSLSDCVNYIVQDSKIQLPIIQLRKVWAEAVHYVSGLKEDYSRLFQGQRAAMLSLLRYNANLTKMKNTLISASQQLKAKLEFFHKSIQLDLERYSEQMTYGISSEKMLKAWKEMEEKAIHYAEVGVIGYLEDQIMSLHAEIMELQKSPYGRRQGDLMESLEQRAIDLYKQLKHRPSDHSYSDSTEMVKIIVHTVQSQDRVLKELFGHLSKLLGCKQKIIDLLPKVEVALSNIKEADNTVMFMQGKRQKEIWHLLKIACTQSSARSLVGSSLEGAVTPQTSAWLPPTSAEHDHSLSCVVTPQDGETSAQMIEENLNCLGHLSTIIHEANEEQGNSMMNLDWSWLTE
The experiment is described as follows: Inhibition of human recombinant IKK1.

A further experiment concerns A549. In words: Inhibition of TNF-alpha-induced NF-kappaB […] activation in human A549 cells. In kind it is functional, cell-based.
The target in experiment [3] is Rho-associated protein kinase 1 (Homo sapiens, UniProt Q13464). The experiment is described as follows: Inhibition of human recombinant ROCK1.
For the next experiment, the target named is Aurora kinase B (Homo sapiens, UniProt Q96GD4). The experiment is described as follows: Inhibition of Aurora B kinase.
Experiment [4] has as its target Glycogen synthase kinase-3 beta (Homo sapiens, UniProt P49841). In words: Inhibition of GSK3-beta kinase.

Chain of Rho-associated protein kinase 1 (Q13464 whole entry): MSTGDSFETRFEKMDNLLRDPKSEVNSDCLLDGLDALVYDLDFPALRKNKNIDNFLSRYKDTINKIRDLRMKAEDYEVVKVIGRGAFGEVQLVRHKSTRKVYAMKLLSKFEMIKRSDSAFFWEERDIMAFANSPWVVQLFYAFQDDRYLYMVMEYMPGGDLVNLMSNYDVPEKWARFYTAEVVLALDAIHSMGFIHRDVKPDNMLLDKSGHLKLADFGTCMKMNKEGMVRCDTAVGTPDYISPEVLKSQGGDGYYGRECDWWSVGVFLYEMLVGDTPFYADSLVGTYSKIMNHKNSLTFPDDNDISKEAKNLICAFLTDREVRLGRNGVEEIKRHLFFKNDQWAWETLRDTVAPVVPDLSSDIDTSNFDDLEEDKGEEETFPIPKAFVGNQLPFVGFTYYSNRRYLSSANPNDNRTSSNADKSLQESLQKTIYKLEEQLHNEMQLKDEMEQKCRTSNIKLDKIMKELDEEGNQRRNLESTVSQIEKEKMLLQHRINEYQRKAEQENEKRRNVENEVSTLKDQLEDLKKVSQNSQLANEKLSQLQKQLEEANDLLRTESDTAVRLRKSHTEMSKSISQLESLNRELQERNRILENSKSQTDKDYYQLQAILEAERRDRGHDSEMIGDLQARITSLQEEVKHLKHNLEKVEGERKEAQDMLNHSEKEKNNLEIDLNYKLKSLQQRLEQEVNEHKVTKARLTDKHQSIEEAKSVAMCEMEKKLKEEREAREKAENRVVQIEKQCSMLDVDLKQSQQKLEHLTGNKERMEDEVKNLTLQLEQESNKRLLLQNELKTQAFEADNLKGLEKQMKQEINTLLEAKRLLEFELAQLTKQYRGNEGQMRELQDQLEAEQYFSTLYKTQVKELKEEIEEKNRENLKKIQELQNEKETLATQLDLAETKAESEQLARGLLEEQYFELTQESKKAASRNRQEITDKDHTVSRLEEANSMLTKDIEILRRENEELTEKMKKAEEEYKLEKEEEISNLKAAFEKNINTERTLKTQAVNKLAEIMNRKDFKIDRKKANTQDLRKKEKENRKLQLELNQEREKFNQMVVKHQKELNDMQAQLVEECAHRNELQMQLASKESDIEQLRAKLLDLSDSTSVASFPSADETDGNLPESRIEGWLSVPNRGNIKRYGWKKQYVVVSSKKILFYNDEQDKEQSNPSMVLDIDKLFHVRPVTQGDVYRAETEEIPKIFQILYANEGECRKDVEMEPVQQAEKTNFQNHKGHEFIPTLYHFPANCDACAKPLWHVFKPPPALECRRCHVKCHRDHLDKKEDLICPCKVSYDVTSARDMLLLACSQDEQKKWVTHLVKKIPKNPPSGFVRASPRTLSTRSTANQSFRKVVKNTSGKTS
Chain of Glycogen synthase kinase-3 beta (P49841 whole entry): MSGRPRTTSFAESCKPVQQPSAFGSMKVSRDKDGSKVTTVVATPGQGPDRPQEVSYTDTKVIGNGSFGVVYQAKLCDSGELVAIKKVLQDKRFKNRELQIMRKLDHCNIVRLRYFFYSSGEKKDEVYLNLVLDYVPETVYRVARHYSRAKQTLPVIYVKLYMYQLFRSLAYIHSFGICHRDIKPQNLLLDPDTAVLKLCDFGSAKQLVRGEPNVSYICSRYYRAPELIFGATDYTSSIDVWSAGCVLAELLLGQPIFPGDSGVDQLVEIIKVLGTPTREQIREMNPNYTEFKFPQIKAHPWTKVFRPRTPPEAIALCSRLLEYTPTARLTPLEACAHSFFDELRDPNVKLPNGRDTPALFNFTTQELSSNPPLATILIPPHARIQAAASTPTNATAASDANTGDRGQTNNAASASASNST
Chain of Aurora kinase B (Q96GD4 whole entry): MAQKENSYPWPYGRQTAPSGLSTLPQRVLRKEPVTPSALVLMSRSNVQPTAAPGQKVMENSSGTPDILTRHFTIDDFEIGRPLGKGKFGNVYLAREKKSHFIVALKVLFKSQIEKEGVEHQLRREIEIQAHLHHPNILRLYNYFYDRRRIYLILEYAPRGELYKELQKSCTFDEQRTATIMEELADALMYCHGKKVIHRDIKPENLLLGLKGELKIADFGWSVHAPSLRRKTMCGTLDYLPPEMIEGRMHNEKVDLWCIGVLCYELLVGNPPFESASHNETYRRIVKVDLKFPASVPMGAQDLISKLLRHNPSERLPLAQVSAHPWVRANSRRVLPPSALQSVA

As for `Cc1cc2c(-c3ccc(S(=O)(=O)NC4CCS(=O)(=O)CC4)cc3)ccnc2[nH]1`, the 50% inhibitory concentration (IC50) – broadly, the point on the concentration scale where inhibition reaches its midpoint – in experiment [1] is 20 nM; in experiment [2], 12.6 nM; in the experiment with A549 it was 50.1 nM.

Consider `O=S(=O)(NC1CNC1)c1ccc(-c2ccnc3[nH]ccc23)cc1`, for which the concentration for half-maximal inhibition (IC50) in experiment [1] is 39.8 nM; in experiment [2], 31.6 nM.

Take `NS(=O)(=O)c1cccc(-c2ccnc3[nH]ccc23)c1`: the IC50 is 5010 nM in experiment [1] and 1260 nM in experiment [2].

For the compound `NCCNS(=O)(=O)c1ccc(-c2ccnc3[nH]c(CC(N)=O)cc23)cc1`, the IC50 in experiment [1] is 20 nM; in experiment [2] it was 158 nM; in experiment [3] it was 10000 nM; with A549 it was 3980 nM.

Turning to `Cc1cc2c(-c3ccc(N(C)S(C)(=O)=O)cc3)ccnc2[nH]1`, the IC50 in experiment [1] is 316 nM; in experiment [2], 7940 nM; in the experiment on A549, 2000 nM.

Turning to `CNCCNS(=O)(=O)c1ccc(-c2ccnc3[nH]ccc23)cc1`, the IC50 in experiment [1] was 31.6 nM; in experiment [2] it was 316 nM.

`O=S1(=O)CCC(NS(=O)(=O)c2ccc(-c3ccnc4[nH]ccc34)cc2)CC1`: the IC50 in experiment [1] is 79.4 nM; in experiment [2], 50.1 nM.

Regarding `NS(=O)(=O)c1ccc(-c2ccnc3[nH]ccc23)cc1`, the half-inhibitory concentration (IC50) in experiment [1] was 316 nM; in experiment [2], 158 nM.

As for `Cc1cc2c(-c3ccc(S(=O)(=O)N(C)C4CCS(=O)(=O)CC4)cc3)ccnc2[nH]1`, the IC50 in experiment [1] is 39.8 nM; in experiment [2] it was 1000 nM; with A549 it was 501 nM.

Consider `O=S(=O)(c1ccc(-c2ccnc3[nH]ccc23)cc1)N1CCCC1`, for which the IC50 was 251 nM in experiment [1] and 1260 nM in experiment [2].

On to `Cc1cc2c(-c3ccc(NS(C)(=O)=O)cc3)ccnc2[nH]1`, for which the IC50 was 63.1 nM in experiment [1], 3980 nM in experiment [2] and 1000 nM with A549.

As for `Cc1cc2c(-c3ccc(S(=O)(=O)NCCN)cc3)ccnc2[nH]1`, the IC50 in experiment [1] is 20 nM; in experiment [2] it was 126 nM; in experiment [3] it was 316 nM; in the experiment on A549, 316 nM.

For `Cc1cc2c(-c3ccc(S(=O)(=O)N(C)CCO)cc3)ccnc2[nH]1`, the IC50 in experiment [1] is 39.8 nM; in experiment [2] it was 3160 nM; in experiment [3] it was greater than 10000 nM; on Aurora kinase B, 1580 nM; in experiment [4], greater than 25100 nM.

With `CN(C)CCNS(=O)(=O)c1ccc(-c2ccnc3[nH]ccc23)cc1`, the IC50 in experiment [1] is 200 nM; in experiment [2], 794 nM.

As to `Cc1cc2c(-c3ccc(NS(=O)(=O)CCN)cc3)ccnc2[nH]1`, the IC50 in experiment [1] was 15.8 nM; in experiment [2] it was 126 nM; in the experiment with A549, 2000 nM.

Turning to `Cc1cc2c(-c3ccc(S(=O)(=O)NCCO)cc3)ccnc2[nH]1`, the IC50 was 20 nM in experiment [1], 316 nM in experiment [2] and 501 nM with A549.

Regarding `NCCNS(=O)(=O)c1ccc(-c2ccnc3[nH]ccc23)cc1`, the IC50 is 39.8 nM in experiment [1], 251 nM in experiment [2], 20 nM in experiment [3] and 631 nM in the experiment with A549.

For the compound `c1ccc(-c2ccnc3[nH]ccc23)cc1`, the concentration for half-maximal inhibition (IC50) in experiment [1] was 3160 nM; in experiment [2] it was 3980 nM.

For `NC(=O)c1ccc(-c2ccnc3[nH]ccc23)cc1`, the results for the IC50 in experiment [1] and in experiment [2] were 631 nM and 398 nM, respectively.

For `CS(=O)(=O)Nc1ccc(-c2ccnc3[nH]ccc23)cc1`, the IC50 is 158 nM in experiment [1] and 794 nM in experiment [2].

The values are drawn from ChEMBL document CHEMBL1138461, “4-Phenyl-7-azaindoles as potent and selective IKK2 inhibitors” (Bioorg Med Chem Lett, 2009).
